# Structures can show the parent of a compound that is named as a salt.
# Columns and labels:
# [1] = system: urinary risk of forming calcium kidney stones; experiment: Urinary risk of forming calcium kidney stones, study on 74 individuals with oxalocalcium kidney stones; format: in vivo, human; conditions: for drop of the risk of forming calcium stones: 15 days after treatment start, citrate 6.48 g/day, phytate 120 mg/day, individuals with oxalocalcium kidney stones
# Method: These individuals have been divided into three groups: 19 individuals with kidney stones (Group I), 38 individuals with kidney stones (Group II) and 17 individuals with kidney stones (Group III). The urinary risk to form calcium kidney stones was evaluated for each individual before being subjected to any pharmacological treatment.
# 15 days after treatment starting, the urinary risk of forming calcium kidney stones was evaluated again for each individual.
# [2] = Urinary excretion of phytate after dietary intake; format: in vivo
# [3] = cited from earlier work
maximum urinary excretion as share of the total intake ([2]; diet supplemented with products rich in phytates),"intake above which the excreted amount in urine does not increase ([2]; urinary excretion, dose-dependent up to this intake)",Structure (SMILES),drop of the risk of forming calcium stones [1],"effect on urine pH ([1]; treatment of calcium kidney stones, compared with citrate)",effect on bioavailability of oligoelements such as Zn(II) and Fe(III) ([3]; doses in which maximum excretions are produced),toxicity ([3]; megadose of 8.8 g/day)
1-5%,20.9 mg/kg of body weight,"O=P(O)(O)O[C@H]1[C@H](OP(=O)(O)O)[C@@H](OP(=O)(O)O)[C@H](OP(=O)(O)O)[C@@H](OP(=O)(O)O)[C@H]1OP(=O)(O)O [phytate, inositol hexaphosphate]",50%,does not cause increases of the urine pH,do not affect the bioavailability,does not produce any toxicity
,,"O=C(O)CC(O)(CC(=O)O)C(=O)O [citrate, potassium citrate, reference compound]",52%,,,
